This passage reports Activity results from ChEMBL document CHEMBL2150992, “Synthesis of quinoline derivatives for fluorescent imaging certain bacteria” (Bioorg Med Chem Lett, 2012).

Calls of active or inactive are those of the source. The rule behind the calls is not given here.

What all share (type): functional, organism-based
In assay [1] the test system is Escherichia coli. Put plainly: Binding affinity to Escherichia coli at 0.0781 mM after 10 mins by fluorescence microscopy.
Assay [2] relates to Staphylococcus aureus. As to the kind of experiment: Binding affinity to Staphylococcus aureus at 0.0781 mM after 10 mins by fluorescence microscopy.
Assay [3] relates to Bacillus subtilis. Put plainly: Binding affinity to Bacillus subtilis at 0.0781 mM after 10 mins by fluorescence microscopy.
Assay [4] concerns Escherichia coli. Put plainly: Binding affinity to Escherichia coli at 0.0781 mM after 1 day by fluorescence microscopy.
For assay [5], the system named is Staphylococcus aureus. As to the kind of experiment: Binding affinity to Staphylococcus aureus at 0.0781 mM after 1 day by fluorescence microscopy.
In assay [6] the test system is Bacillus subtilis. As to the kind of experiment: Binding affinity to Bacillus subtilis at 0.0781 mM after 1 day by fluorescence microscopy.

For `COc1ccc2nc(-c3cc4ccccc4c4ccccc34)cc(N3CCCC3=O)c2c1`, the result in assay [1], in assay [3], in assay [4], in assay [5] and in assay [6] was Active. Moreover, the outcome in assay [2] was inactive.

For the compound `O=C1CCCN1c1cc(-c2cc3ccccc3c3ccccc23)nc2ccc(Br)cc12`, in assay [1], the result was inactive. The result in assay [2], in assay [3], in assay [4], in assay [5] and in assay [6] was Active.

For `N#Cc1ccc2c(c1)[C@@H](N1CCCC1=O)C[C@@H](c1cc3ccccc3c3ccccc13)N2` (mixture of isomers), the result in assay [1] was inactive. Moreover, the result in assay [2] and in assay [3] was Active.

With `c1ccc2c(c1)N[C@H](c1cc3ccccc3c3ccccc13)C1CCCOC21` (stereo not given in full), the outcome in assay [1] and in assay [3] was inactive. Moreover, in assay [2], the result was Active.

Consider `O=C1CCCN1[C@H]1C[C@@H](c2cc3ccccc3c3ccccc23)Nc2ccc(Cl)cc21` (relative stereo), for which the result in assay [1] and in assay [2] was inactive. Moreover, in assay [3], the result was Active.

`O=C1CCCN1[C@H]1C[C@@H](c2cc3ccccc3c3ccccc23)Nc2ccc(Br)cc21` (relative stereo): in assay [1], the result was Active. Besides, the result in assay [2] and in assay [3] was inactive.

For the compound `O=C1CCCN1c1cc(-c2cc3ccccc3c3ccccc23)nc2ccccc12`, the outcome in assay [1], in assay [2], in assay [3], in assay [4], in assay [5] and in assay [6] was Active.

In the case of `N#Cc1ccc2nc(-c3cc4ccccc4c4ccccc34)cc(N3CCCC3=O)c2c1`, the result in assay [1], in assay [2], in assay [3], in assay [4], in assay [5] and in assay [6] was Active.

Consider `O=C1CCCN1c1cc(-c2cc3ccccc3c3ccccc23)nc2ccc(Cl)cc12`, for which the outcome in assay [1], in assay [2], in assay [3], in assay [4], in assay [5] and in assay [6] was Active.

On to `CCCCc1ccc2c(c1)[C@@H](N1CCCC1=O)C[C@@H](c1cc3ccccc3c3ccccc13)N2` (relative stereo), for which the result in assay [1] and in assay [3] was inactive. Also, in assay [2], the result was Active.

Consider `O=C1CCCN1[C@H]1C[C@@H](c2cc3ccccc3c3ccccc23)Nc2ccccc21` (relative stereo), for which the outcome in assay [1] was inactive. Further, the outcome in assay [2] and in assay [3] was Active.

With `COc1ccc2c(c1)[C@@H](N1CCCC1=O)C[C@@H](c1cc3ccccc3c3ccccc13)N2` (relative stereo), the result in assay [1], in assay [2] and in assay [3] was Active.

For `c1ccc2c(c1)N[C@@H](c1cc3ccccc3c3ccccc13)C1CCCOC21` (stereo not given in full), the result in assay [1] and in assay [3] was inactive. Also, in assay [2], the outcome was Active.

Consider `CCCCc1ccc2nc(-c3cc4ccccc4c4ccccc34)cc(N3CCCC3=O)c2c1`, for which the result in assay [1] was inactive. The outcome in assay [2], in assay [3], in assay [4], in assay [5] and in assay [6] was Active.
